{"source": "patent US20040266659A1", "about": "“[…] THAT ENHANCE RECALL AND LUCIDITY DURING DREAMING” (priority 2003, published 2004)", "key": {"lucid dreaming": {"test_system": "lucid dreaming", "from_the_text": "These include: 1. Using a cholinergic agonist (e.g., nicotine)."}, "REM sleep": {"test_system": "REM sleep", "conditions": "cited from earlier work"}, "[1]": {"test_system": "normal volunteers self-selected for high dream recall and interest in lucid dreaming", "experiment": "randomized, double blind, placebo-controlled crossover trial of donepizil for lucid dreaming", "type": "in vivo, human", "conditions": "for odds of lucid dreaming: placebo 0.031", "from_the_text": "Subjects collected dream content and other self-report measures on three nights, separated by a washout period of at least one week. […] After each spontaneous awakening during the three nights, Ss evaluated dream content on a range of measures including bizarreness, complexity, and intensity, affect, cognitive clarity, lucidity, and control. They also estimated sleep quality, insomnia, and degree of any adverse effects."}, "[2]": {"conditions": "rivastigmin 6-12 mg dose, galantamine 8-16 mg"}}, "note": "Where two headings read alike, the source gives them in different places.", "data": [{"molecule": "CCN(C)C(=O)Oc1cccc([C@H](C)N(C)C)c1", "note": "[Exelon, rivastigmin]", "values": [{"measurement": "efficacy compared with Aricept", "setting": "lucid dreaming; [2]", "result": "work as well as"}, {"measurement": "side effects compared with Aricept", "setting": "lucid dreaming; [2]", "result": "perhaps fewer side effects"}]}, {"molecule": "COC(=O)C1=CCCN(C)C1", "note": "[arecoline]", "values": [{"measurement": "effect on REM sleep", "setting": "REM sleep; scientific literature studies", "result": "triggering/intensification of REM sleep"}]}, {"molecule": "C[N+](C)(C)CCOC(N)=O", "note": "[carbachol]", "values": [{"measurement": "effect on REM sleep", "setting": "REM sleep; microinjection in certain locations of the brain, such as the Pons", "result": "elicits extended periods of REM sleep"}]}, {"molecule": "COc1cc2c(cc1OC)C(=O)C(CC1CCN(Cc3ccccc3)CC1)C2", "note": "(centres unmarked) [donepizil]", "values": [{"measurement": "levels of dream variables, 5 mg dose vs placebo", "setting": "[1]; 5 mg compared to placebo", "result": "significant elevations"}, {"measurement": "odds of lucid dreaming", "setting": "[1]; 5 mg", "result": 0.429}, {"measurement": "levels of dream variables, 10 mg dose vs 5 mg dose", "setting": "[1]; 10 mg compared to 5 mg", "result": "significantly higher levels"}, {"measurement": "odds of lucid dreaming", "setting": "[1]; 10 mg", "result": 0.754}, {"measurement": "self-reported cognitive clarity, self-reflection and lucidity during dreaming, compared to placebo", "setting": "[1]; both 5 and 10 mg dosages", "result": "significantly enhance"}, {"measurement": "frequency of sleep paralysis", "setting": "[1]; donepizil vs placebo", "result": "significantly elevated"}, {"measurement": "Ss reporting one or more lucid dreams on the experimental nights", "setting": "[1]; nine of 10 Ss, 5 or 10 mg at bedtime, only one S on a placebo night", "result": 90, "unit": "%"}, {"measurement": "estimated time awake during the night", "setting": "[1]; of a 9.0 hr night, placebo 126 min, p<0.05", "result": 176, "unit": "min"}, {"measurement": "incidence of adverse events, notably mild insomnia and gastrointestinal symptoms", "setting": "[1]; primarily associated with the higher dose, two subjects nausea, one vomiting", "result": "low"}, {"measurement": "cognitive clarity, lucidity, recall, control, bizarreness and visual vividness compared to placebo", "setting": "[1]; self-report after each spontaneous awakening, donepizil vs placebo", "result": "significantly elevated"}, {"measurement": "increase in estimated time awake during the night", "setting": "[1]; vs placebo, 9.0 hr night, p<0.05", "result": 40, "unit": "%"}]}, {"molecule": "COc1ccc2c3c1O[C@H]1C[C@@H](O)C=C[C@@]31CCN(C)C2", "note": "[galantamine]", "values": [{"measurement": "side effects compared with Aricept", "setting": "lucid dreaming; [2]", "result": "perhaps fewer side effects"}]}, {"molecule": "huperzine", "values": [{"measurement": "outcome of test for lucid dreaming enhancement", "setting": "lucid dreaming; dose correspondence with Aricept not yet worked out", "result": "promising results"}]}]}
